The record followed here is ChEMBL document CHEMBL4330081, “Rational design of 5-((1H-imidazol-1-yl)methyl)quinolin-8-ol derivatives as novel bromodomain-containing protein 4 inhibitors” (Eur J Med Chem, 2019).

In series [1] the target is T1, Bromodomain-containing protein 4 (Homo sapiens, UniProt O60885). Nature of the series: Inhibition of recombinant full length human N-terminal His6-tagged BRD4 (2 to 1362 residues) expressed in baculovirus infected insect cells using histone H4 peptide as substrate by alpha screen assay.
Series [2] has as its target T1, Bromodomain-containing protein 4. Nature of the series: Inhibition of BRD4 BD1 (unknown origin) using biotin labelled NeC: SGRG-K(Ac)-GG-K(Ac)-GLG-K(Ac)-GGA-K(Ac)-RHRKVGG-K as substrate preincubated for 15 mins followed by substrate addition measured after 30 mins by alpha screen assay. (Alpha assays give light when donor and acceptor beads are brought close together.)

Series [3] shares this target.
Description: Stabilization of BRD4 BD1 (unknown origin) assessed as change in melting temperature at protein to test compound molar ratio of 1:40 by SYPRO Orange dye based fluorescence analysis
In series [4] the test system is MDA-MB-231. Briefly: Antiproliferative activity against human MDA-MB-231 cells after 72 hrs by CellTiter Glo luminescent assay. The format is functional, cell-based. The following applies: MDA-MB-231, 72 h.
The target of series [5] is hERG (KCNH2) (Homo sapiens, UniProt Q12809). Briefly: in vitro. The following applies: CHO cells expressing human ERG.
hERG (KCNH2), sequence (Q12809 whole entry): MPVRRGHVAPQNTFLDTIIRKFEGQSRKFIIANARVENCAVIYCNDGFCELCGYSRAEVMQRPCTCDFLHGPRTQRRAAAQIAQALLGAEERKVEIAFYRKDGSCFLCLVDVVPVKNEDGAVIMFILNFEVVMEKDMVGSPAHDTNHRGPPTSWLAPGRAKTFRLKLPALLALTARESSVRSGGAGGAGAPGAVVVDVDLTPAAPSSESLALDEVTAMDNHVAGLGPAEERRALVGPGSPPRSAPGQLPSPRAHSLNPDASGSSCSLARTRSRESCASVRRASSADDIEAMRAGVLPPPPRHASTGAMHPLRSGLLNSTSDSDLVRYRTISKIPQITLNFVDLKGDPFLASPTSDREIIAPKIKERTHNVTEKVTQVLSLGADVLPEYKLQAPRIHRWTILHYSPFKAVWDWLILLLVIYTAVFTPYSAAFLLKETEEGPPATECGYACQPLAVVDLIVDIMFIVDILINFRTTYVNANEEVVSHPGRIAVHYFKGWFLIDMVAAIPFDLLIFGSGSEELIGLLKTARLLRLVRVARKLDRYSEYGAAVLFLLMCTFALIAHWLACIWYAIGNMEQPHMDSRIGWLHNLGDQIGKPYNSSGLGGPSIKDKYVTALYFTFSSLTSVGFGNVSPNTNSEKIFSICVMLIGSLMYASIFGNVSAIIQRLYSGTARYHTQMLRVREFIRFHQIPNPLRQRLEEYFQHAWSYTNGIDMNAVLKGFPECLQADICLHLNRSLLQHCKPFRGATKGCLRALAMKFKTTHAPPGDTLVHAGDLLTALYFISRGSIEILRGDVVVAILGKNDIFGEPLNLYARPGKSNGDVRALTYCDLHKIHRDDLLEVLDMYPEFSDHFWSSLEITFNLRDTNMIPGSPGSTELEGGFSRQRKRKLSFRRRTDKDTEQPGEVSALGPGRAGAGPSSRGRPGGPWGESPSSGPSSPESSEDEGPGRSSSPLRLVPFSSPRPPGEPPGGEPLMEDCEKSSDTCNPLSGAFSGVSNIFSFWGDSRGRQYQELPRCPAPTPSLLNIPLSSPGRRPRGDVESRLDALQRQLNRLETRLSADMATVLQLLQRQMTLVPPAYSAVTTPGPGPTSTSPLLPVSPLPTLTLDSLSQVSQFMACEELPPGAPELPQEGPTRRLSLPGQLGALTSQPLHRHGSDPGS
Description: Inhibition of human ERG expressed in CHO cells at 40 uM at -80 mV holding potential after 2.5 mins by Qpatch clamp assay relative to control
For series [6], the system named is MV4-11. Briefly: Antiproliferative activity against human MV4-11 cells after 72 hrs by CellTiter Glo luminescent assay. The format is functional, cell-based. The note with it: MV4-11, 72 h. (In ATP-based viability assays light output follows the ATP content of the culture.)
Series [7] concerns MM1.S. Nature of the series: Antiproliferative activity against human MM1S cells after 72 hrs by CellTiter Glo luminescent assay. It is filed as functional, cell-based.
A short description of series [8]: Half life in human hepatocytes at 1 uM up to 120 mins by LC/MS analysis. It is filed as ADME, cell-based, Hepatocyte.
For series [9], the target named is T1, Bromodomain-containing protein 4. Nature of the series: Inhibition of BRD4 in human MV4-11 cells assessed as down regulation of c-myc after 6 hrs by Western blot analysis. It is filed as cell-based. (In general: In western blotting, separated proteins are transferred to a membrane and probed.)
The target is the same in series [10]. Briefly: Inhibition of BRD4 in human MM1S cells assessed as down regulation of c-myc after 6 hrs by Western blot analysis. The format is cell-based.
The target is the same in series [11]. Nature of the series: Stabilization of BRD4 BD1 (unknown origin) assessed as change in melting temperature at protein to test compound molar ratio of 1:10 by SYPRO Orange dye based fluorescence analysis.
For series [12] the target is unchanged. Briefly: Stabilization of BRD4 BD1 (unknown origin) assessed as change in melting temperature at protein to test compound molar ratio of 1:80 by SYPRO Orange dye based fluorescence analysis.
Series [13] has the same target. Briefly: Stabilization of BRD4 BD1 (unknown origin) assessed as change in melting temperature at protein to test compound molar ratio of 1:20 by SYPRO Orange dye based fluorescence analysis.
The target is the same in series [14]. Nature of the series: Inhibition of BRD4 in human MDA-MB-231 cells assessed as down regulation of c-myc at 3.125 to 50 uM after 6 hrs by Western blot analysis. The format is cell-based.
The target is the same in series [15]. Briefly: Inhibition of BRD4 in human MV4-11 cells assessed as down regulation of c-myc at 3.125 to 50 uM after 6 hrs by Western blot analysis. The format is cell-based.

The source made the active and inactive calls.

Broadly, the IC50 is the midpoint of a concentration-inhibition curve. Consider `Cc1nnn(C)c1-c1cnc2c3ccc(C(C)(C)O)cc3n(C(c3ccccc3)C3CCOCC3)c2c1` (configuration not stated), for which, in series [1], the IC50 was under 5 nM.
The same measure, in the same setting: the value for `N=C(N)NCCC[C@H](NC(=O)CCC(=O)OC[N+]1(c2cc(=O)c3cccc(-c4ccccc4)c3o2)CCOCC1)C(=O)NCC(=O)N[C@@H](CC(=O)O)C(=O)N[C@@H](CO)C(=O)[O-]` [SF-1126] was 5300 nM.
By ΔTm is commonly meant the change in melting temperature against a reference sample. A word on the inhibition: it is the percentage by which the read-out fell short of the control. `Oc1ccc(Cn2nnc3ccccc32)c2cccnc12`: the IC50 in series [2] is 155 nM; in series [4], 1.3 µM; in [6], 1000 nM; in [7], 300 nM. Further, the ΔTm in series [3] amounted to 4.3 °C. Further, the inhibition at 2.5 min, 40 µM in [5] worked out at 24%.
Take `COc1nnc2ccc(N3CCC(c4ccc(OCCN5CCN(C)C(=O)C5C)cc4)CC3)nn12` (configuration not stated): in series [1], the IC50 was 1.7 nM.
One may read the half-life as the time needed for the level to fall by half in the phase considered. For `O=C(Oc1ccc(Cn2ccnc2)c2cccnc12)c1ccccc1`, the IC50 in series [2] worked out at 67 nM; in [4], 12.3 µM; in series [6] it was 9000 nM; in series [7], 2900 nM. The same molecule displayed a half-life at 1 µM in [8] of 1.4 min. Further, the ΔTm in series [3] is 3.8 °C.
Consider `Oc1ccc(Cn2cnc(F)c2)c2cccnc12`, for which the inhibition result in series [9] and in [10] was “Dose-dependent effect” throughout. For the same molecule, the IC50 in series [2] was 70 nM; in series [4] it was 34.3 µM; in series [6], 2200 nM; in [7], 1200 nM. Further, the half-life at 1 µM in [8] came out at 23 min. In series [3], the ΔTm stood at 4.6 °C. The inhibition at 2.5 min, 40 µM in series [5] came out at 10%.
Regarding `Oc1ccc(Cn2ccnc2)c2cccnc12`, the figures for the IC50 in [2] and in [6] were 101 nM and 27000 nM, respectively. The molecule also had a half-life at 1 µM in [8] of 21 min. The ΔTm in series [3] was 3.9 °C; in series [11], 1.8 °C; in series [12], 5 °C; in series [13] it was 2.8 °C. For the same molecule, the inhibition at 2.5 min, 40 µM in series [5] was found to be 10%.
Consider `Cc1ccc2c(Cn3cnc(F)c3)ccc(OC(=O)OC(C)(C)C)c2n1`, for which the IC50 in series [2] was 46 nM; in series [4] it was 2.7 µM; in series [6] it was 2900 nM; in [7], 1100 nM. Further, the half-life at 1 µM in series [8] amounted to 1.6 min. Further, in series [3], the ΔTm is 4.6 °C.
As to `Cc1sc2c(c1C)C(c1ccccc1)=N[C@@H](CC(=O)OC(C)(C)C)c1nnc(C)n1-2`, the IC50 in [1] came out at 33 nM.
`Oc1ccc(Cn2cnc3ccccc32)c2cccnc12`: the inhibition entry in [9] and in series [10] was “Dose-dependent effect” throughout. The IC50 in series [2] was 337 nM; in series [4] it was 4.7 µM; in [6], 1000 nM; in series [7], 3000 nM. In series [8], this molecule registered a half-life at 1 µM of 31 min. Moreover, in series [3], the ΔTm turned out to be 3.1 °C. Besides, the inhibition at 2.5 min, 40 µM in series [5] came to 33%.
Consider `O=[N+]([O-])c1ccc2c(c1)ncn2Cc1ccc(O)c2ncccc12`, for which the IC50 in [2] turned out to be 107 nM; in [4] it was 1.1 µM; in series [6], 1000 nM; in series [7] it was 10900 nM. In series [8], the half-life at 1 µM came out at 27 min. Also, the inhibition entry in series [14] was “inactive”. Besides, the ΔTm in series [3] is 4 °C. In addition, the inhibition entry in series [15] was “Active”.
As to `Oc1ccc(Cn2cccn2)c2cccnc12`, the IC50 in series [2] is 76 nM; in series [4], 3.6 µM; in [6] it was 1600 nM; in [7] it was 700 nM. For the same molecule, the ΔTm in series [3] came to 4.5 °C. For the same molecule, in series [5], the inhibition at 2.5 min, 40 µM worked out at 8.3%.
